Measurements as given in paper PMC4979471 (Cell Death Discovery, 2015).
Read-outs that look alike come from different tables or passages of the source.

Key:
Assay in all cases: Kinase selectivity, P33-radiolabeled assay
Type in all cases: biochemical
Conditions in all cases: 10 μM ATP
DDR2 = biological target: T1, DDR2 (Homo sapiens, UniProt Q16832)
T1 construct: purchased Reaction Biology Corp
T1 sequence (Q16832 22-855): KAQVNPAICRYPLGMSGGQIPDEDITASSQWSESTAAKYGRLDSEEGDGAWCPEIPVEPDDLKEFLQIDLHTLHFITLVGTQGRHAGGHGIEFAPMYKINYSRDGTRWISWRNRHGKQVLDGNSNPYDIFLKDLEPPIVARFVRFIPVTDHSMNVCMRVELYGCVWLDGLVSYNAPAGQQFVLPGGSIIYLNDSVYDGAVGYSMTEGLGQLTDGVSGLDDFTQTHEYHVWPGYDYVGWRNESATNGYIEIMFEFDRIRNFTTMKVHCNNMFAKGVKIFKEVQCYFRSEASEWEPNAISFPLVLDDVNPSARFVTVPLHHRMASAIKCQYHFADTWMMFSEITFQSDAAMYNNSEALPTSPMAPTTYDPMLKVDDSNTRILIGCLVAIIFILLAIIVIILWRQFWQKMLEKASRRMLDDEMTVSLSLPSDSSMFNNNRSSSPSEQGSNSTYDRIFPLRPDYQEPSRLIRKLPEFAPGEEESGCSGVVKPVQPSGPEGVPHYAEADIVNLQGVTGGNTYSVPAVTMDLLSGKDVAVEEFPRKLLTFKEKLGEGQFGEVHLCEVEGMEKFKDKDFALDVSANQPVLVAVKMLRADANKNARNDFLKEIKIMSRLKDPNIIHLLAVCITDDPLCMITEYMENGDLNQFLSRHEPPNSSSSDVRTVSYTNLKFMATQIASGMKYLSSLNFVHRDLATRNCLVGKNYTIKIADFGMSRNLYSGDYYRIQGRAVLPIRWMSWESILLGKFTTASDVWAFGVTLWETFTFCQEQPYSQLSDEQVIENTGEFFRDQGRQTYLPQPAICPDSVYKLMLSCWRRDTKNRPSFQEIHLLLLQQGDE
Procedure, shortened: (§1)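 ATP at 10 μM; test article at 10 μM, single point, two replicates. Output is activity as % of DMSO.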

CDK2/Cyclin A1 = biological target: T2, CDK2/Cyclin A1 (Homo sapiens, UniProt P24941)
T2 construct: purchased Reaction Biology Corp
Procedure, shortened: as §1

IRAK4 = biological target: T3, IRAK4 (Homo sapiens, UniProt Q9NWZ3)
T3 construct: purchased Reaction Biology Corp
T3 sequence (Q9NWZ3 1-460): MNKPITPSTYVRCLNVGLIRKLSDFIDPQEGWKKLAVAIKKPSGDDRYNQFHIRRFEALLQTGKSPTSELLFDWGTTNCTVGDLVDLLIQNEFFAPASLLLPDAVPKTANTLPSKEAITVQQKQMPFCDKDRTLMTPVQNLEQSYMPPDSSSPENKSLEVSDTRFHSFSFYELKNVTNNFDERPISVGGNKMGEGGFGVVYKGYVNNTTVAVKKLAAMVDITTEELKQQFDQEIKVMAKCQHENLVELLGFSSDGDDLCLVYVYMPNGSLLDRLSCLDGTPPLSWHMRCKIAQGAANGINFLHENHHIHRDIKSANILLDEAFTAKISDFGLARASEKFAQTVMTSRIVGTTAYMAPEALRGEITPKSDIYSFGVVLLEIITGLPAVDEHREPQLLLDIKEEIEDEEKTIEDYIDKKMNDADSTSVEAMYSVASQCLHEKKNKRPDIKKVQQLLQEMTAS
Procedure, shortened: as §1

PDGFRb = biological target: T4, PDGFRb (Homo sapiens, UniProt P09619)
T4 construct: purchased Reaction Biology Corp
Procedure, shortened: as §1

ARK5/NUAK1 = biological target: T5, ARK5/NUAK1 (Homo sapiens, UniProt O60285)
T5 construct: purchased Reaction Biology Corp
T5 sequence (O60285 1-661): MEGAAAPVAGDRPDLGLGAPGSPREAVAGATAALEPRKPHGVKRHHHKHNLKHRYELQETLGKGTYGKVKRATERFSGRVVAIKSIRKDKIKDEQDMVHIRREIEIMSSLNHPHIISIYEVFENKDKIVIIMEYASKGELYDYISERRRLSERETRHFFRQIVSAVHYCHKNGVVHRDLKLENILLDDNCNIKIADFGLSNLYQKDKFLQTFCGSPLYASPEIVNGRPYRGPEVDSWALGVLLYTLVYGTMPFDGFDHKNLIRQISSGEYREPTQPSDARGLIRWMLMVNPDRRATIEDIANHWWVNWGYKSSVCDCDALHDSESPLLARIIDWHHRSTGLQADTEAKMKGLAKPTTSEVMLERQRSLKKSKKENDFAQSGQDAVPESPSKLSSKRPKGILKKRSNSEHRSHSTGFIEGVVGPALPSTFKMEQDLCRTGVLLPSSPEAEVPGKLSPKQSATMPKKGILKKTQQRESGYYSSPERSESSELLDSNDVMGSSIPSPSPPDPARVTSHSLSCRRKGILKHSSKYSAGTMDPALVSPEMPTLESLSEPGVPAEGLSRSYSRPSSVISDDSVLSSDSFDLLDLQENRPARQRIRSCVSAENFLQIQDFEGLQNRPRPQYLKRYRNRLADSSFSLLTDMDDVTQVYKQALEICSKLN
Procedure, shortened: as §1

MAPKAPK3 = biological target: T6, MAPKAPK3 (Homo sapiens, UniProt Q16644)
T6 construct: purchased Reaction Biology Corp
Procedure, shortened: as §1

WNK2 = biological target: T7, WNK2 (Homo sapiens, UniProt Q9Y3S1)
T7 construct: purchased Reaction Biology Corp
Procedure, shortened: as §1

BTK = biological target: T8, BTK (Homo sapiens, UniProt Q06187)
T8 construct: purchased Reaction Biology Corp
Procedure, shortened: as §1

NEK7 = biological target: T9, NEK7 (Homo sapiens, UniProt Q8TDX7)
T9 construct: purchased Reaction Biology Corp
Procedure, shortened: as §1

[1] = read-out: % Enzyme Activity (relative to DMSO controls) AVG
[2] = read-out: % Enzyme Activity (relative to DMSO controls) Data 1
[3] = read-out: % Enzyme Activity (relative to DMSO controls) Data 2

T9 sequence (Q8TDX7 whole entry): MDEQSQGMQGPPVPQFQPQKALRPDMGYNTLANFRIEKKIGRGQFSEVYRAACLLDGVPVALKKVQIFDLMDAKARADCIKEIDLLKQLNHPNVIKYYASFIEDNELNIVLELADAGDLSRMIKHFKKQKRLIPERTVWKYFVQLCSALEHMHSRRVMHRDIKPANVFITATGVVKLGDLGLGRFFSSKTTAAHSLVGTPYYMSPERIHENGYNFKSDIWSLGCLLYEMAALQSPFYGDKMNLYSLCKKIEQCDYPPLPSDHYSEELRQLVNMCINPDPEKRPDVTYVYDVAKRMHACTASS
T4 sequence (P09619 33-1106): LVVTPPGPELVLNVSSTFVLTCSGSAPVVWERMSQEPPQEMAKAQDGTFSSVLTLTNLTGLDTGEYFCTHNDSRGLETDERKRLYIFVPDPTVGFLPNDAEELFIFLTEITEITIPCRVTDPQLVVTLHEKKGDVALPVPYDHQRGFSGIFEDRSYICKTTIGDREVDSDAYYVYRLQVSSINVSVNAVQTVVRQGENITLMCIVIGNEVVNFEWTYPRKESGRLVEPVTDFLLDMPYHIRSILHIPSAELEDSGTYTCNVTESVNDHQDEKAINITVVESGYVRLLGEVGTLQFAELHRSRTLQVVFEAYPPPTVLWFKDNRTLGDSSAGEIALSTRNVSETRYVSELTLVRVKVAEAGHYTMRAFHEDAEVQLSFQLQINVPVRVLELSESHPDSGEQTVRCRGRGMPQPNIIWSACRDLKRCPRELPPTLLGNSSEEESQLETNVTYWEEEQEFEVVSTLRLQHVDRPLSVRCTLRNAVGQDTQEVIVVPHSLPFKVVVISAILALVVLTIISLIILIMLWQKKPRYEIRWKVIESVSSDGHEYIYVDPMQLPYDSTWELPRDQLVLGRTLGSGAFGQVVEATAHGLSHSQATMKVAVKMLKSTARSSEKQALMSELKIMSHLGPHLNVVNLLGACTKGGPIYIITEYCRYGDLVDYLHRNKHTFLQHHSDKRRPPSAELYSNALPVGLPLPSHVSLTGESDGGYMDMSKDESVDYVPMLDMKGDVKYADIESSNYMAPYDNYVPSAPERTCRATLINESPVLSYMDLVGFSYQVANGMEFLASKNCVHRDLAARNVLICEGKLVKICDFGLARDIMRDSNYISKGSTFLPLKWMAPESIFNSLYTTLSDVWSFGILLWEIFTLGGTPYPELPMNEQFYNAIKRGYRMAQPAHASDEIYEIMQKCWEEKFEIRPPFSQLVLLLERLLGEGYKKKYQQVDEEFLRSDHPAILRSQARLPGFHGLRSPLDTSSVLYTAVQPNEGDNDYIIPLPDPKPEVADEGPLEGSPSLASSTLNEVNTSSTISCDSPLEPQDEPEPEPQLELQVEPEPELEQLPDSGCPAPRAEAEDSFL
T7 sequence (Q9Y3S1 whole entry): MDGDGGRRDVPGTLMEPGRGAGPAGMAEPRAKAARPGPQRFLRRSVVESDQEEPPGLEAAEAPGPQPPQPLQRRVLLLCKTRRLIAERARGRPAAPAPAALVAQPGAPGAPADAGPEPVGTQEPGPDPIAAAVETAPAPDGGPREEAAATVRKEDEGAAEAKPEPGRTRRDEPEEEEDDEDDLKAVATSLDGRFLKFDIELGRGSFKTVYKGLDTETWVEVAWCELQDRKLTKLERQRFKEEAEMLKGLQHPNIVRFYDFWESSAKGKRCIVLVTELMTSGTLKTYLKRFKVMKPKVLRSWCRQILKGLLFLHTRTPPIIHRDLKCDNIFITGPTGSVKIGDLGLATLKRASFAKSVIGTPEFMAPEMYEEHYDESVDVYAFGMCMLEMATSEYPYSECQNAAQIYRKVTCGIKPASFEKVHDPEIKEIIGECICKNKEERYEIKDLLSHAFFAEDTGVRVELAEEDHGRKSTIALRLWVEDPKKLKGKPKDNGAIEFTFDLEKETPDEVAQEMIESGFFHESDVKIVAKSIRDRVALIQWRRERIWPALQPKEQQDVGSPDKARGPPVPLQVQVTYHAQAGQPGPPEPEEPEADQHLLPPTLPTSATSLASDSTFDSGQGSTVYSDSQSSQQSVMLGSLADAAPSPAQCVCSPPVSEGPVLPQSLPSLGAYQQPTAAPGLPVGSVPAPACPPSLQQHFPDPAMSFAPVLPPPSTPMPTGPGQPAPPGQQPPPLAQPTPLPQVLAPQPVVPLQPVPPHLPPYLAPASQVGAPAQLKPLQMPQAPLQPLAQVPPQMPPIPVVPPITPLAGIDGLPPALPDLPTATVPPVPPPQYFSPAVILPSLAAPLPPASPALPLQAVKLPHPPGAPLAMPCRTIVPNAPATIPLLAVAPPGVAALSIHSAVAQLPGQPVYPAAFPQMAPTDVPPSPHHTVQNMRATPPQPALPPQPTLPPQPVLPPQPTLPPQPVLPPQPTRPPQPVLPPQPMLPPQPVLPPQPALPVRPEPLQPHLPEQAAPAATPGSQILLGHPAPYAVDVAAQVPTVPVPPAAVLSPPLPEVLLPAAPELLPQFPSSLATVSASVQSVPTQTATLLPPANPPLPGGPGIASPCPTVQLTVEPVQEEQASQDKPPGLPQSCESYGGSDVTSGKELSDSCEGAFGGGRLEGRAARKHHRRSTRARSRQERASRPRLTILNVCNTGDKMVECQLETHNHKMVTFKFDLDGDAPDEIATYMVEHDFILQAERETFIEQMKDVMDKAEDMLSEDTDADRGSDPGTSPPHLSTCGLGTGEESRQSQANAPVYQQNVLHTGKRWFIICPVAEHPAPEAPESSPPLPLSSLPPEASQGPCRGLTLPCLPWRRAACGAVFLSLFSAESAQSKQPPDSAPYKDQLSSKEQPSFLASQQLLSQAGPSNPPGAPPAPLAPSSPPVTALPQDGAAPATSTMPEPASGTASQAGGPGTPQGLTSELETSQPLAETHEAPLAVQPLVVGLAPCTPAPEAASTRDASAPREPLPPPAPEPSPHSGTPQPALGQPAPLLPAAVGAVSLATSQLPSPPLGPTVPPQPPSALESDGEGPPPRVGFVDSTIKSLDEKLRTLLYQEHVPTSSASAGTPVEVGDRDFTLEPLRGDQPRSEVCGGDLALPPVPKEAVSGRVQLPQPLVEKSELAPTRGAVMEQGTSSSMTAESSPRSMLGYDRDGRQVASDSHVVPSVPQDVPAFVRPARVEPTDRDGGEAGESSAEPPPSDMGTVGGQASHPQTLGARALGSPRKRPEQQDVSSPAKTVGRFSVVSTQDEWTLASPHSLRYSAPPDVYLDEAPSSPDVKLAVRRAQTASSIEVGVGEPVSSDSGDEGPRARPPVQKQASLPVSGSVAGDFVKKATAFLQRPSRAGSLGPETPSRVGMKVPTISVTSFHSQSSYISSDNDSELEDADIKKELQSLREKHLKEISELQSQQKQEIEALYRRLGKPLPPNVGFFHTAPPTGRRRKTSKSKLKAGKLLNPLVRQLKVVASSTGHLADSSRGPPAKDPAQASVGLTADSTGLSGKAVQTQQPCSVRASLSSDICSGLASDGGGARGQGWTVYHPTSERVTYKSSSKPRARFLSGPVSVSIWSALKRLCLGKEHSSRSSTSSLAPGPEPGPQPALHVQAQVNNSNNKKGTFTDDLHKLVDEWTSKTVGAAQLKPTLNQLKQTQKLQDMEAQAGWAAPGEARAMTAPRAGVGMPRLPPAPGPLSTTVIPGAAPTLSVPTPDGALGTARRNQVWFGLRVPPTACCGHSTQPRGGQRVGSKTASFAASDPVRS
T8 sequence (Q06187 whole entry): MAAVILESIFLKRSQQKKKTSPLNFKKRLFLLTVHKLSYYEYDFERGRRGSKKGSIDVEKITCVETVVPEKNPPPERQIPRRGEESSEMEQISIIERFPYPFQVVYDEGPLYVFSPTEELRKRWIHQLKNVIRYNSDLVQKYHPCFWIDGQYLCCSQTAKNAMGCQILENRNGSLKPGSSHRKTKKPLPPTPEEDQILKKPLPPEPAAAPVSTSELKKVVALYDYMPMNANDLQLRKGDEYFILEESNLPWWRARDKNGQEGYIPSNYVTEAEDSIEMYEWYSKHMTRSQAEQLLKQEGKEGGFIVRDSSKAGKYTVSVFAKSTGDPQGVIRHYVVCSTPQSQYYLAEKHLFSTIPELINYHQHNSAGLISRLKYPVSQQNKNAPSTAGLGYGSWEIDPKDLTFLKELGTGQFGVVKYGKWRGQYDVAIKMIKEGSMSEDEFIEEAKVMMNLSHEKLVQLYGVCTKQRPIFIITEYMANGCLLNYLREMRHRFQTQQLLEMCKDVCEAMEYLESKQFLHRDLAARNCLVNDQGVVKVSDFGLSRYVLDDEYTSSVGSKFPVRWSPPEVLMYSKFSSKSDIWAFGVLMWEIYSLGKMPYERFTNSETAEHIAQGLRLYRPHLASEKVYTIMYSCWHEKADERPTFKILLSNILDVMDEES
T6 sequence (Q16644 whole entry): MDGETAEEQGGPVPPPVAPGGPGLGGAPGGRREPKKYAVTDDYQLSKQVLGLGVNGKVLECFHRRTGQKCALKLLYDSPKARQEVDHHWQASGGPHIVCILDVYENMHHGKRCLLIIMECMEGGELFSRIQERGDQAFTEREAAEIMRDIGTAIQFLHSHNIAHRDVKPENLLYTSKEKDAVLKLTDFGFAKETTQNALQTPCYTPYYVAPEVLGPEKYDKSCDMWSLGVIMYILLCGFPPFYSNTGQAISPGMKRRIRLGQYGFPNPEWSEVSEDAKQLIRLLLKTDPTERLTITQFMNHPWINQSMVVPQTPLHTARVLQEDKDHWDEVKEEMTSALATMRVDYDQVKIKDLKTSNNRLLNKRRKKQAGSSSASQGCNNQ

`CC(C)(C)C(=O)N1N=CC[C@H]1c1ccccc1` [GSK′963] gave a remaining activity at 10 µM (DDR2; [1]) of 93.2%, a remaining activity at 10 µM (DDR2; [2]) of 94% and a remaining activity at 10 µM (DDR2; [3]) of 92.4%. It also gave a remaining activity at 10 µM (CDK2/Cyclin A1; [1]) of 107%, a remaining activity at 10 µM (CDK2/Cyclin A1; [2]) of 107% and a remaining activity at 10 µM (CDK2/Cyclin A1; [3]) of 107%. It also gave a remaining activity at 10 µM (IRAK4; [1]) of 115%, a remaining activity at 10 µM (IRAK4; [2]) of 116% and a remaining activity at 10 µM (IRAK4; [3]) of 114%. It also gave a remaining activity at 10 µM (PDGFRb; [1]) of 104%, a remaining activity at 10 µM (PDGFRb; [2]) of 101% and a remaining activity at 10 µM (PDGFRb; [3]) of 107%. For the same molecule, the remaining activity at 10 µM (ARK5/NUAK1; [1]) was 98%, the remaining activity at 10 µM (ARK5/NUAK1; [2]) was 95.8% and the remaining activity at 10 µM (ARK5/NUAK1; [3]) was 100%. The remaining activity at 10 µM (MAPKAPK3; [1]) was 103%, the remaining activity at 10 µM (MAPKAPK3; [2]) was 104% and the remaining activity at 10 µM (MAPKAPK3; [3]) was 103%. The remaining activity at 10 µM (WNK2; [1]) was 97.4%, the remaining activity at 10 µM (WNK2; [2]) was 99.3% and the remaining activity at 10 µM (WNK2; [3]) was 95.5%. The remaining activity at 10 µM (BTK; [1]) was 95.6%, the remaining activity at 10 µM (BTK; [2]) was 95% and the remaining activity at 10 µM (BTK; [3]) was 96.1%. It also gave a remaining activity at 10 µM (NEK7; [1]) of 98.6%, a remaining activity at 10 µM (NEK7; [2]) of 98.1% and a remaining activity at 10 µM (NEK7; [3]) of 99%.
